# Reference: patent US20090275503A1, “DIASTEREOMERIC PEPTIDES FOR MODULATING T CELL IMMUNITY” (Yeda Research and Developent Co., Ltd. at the Weizman …, priority 2005, published 2009)
# Non-standard residues stand in square brackets, D forms with d. Residues, ends and D or L forms follow the SMILES beside them. No end group written: not given here.
# Legend:
# [1] = system: LNC from Mt-immunized rats; test: T-cell proliferation of LNC or A2b T cell line (Part B, amidated peptides); format: cell-based, rat; conditions: for Inhibition of T-cell proliferative responses to PPD and to Mt176-90: amidated peptides, LNC, 72 hr
# [2] = system: cells; test: Cytotoxicity when incubated with cells (Part B); format: cell-based, rat
# [3] = system: Lewis rats; test: Adjuvant arthritis (AA) in Lewis rats (Part B); format: in vivo, rat; conditions: for Mean maximum AA score: 100 μg amidated peptide per rat at AA induction, maximum possible score 16; for Effect on adjuvant arthritis (clinical score and ankle swelling): 100 μg amidated peptide per rat with the antigen at AA induction
# Procedure: (§1) To test the effect of CP on T-cell activation in vivo, we used AA as a model system. AA was induced by injecting 50 μl of Mt suspended in IFA (0.5 mg/ml) at the base of the tail. At the time of AA induction, each rat also received 100 μg of L-CP, D-CP or 2G CP control peptide (or PBS) dissolved in 50 μl of IFA and mixed with Mt/IFA used to induce AA. The day of AA induction was designated as day 0. Disease severity was assessed by direct observation of all 4 limbs in each animal. A relative score between 0 and 4 was assigned to each limb, based on the degree of joint inflammation, redness and deformity; thus the maximum possible score for an individual animal was 16. The mean AA score (±SEM) is shown for each experimental group. Arthritis was also quantified by measuring hind limb diameter with a caliper. Measurements were taken on the day of the induction of AA and 26 days later (at the peak of AA); the results are presented as the mean±SEM of the difference between the two values for all the animals in each group. The person who scored the disease was blinded to the identity of the groups.
# To test the inhibitory effects of CP on the activation of specific T cells in vivo, we used the adjuvant arthritis (AA) model. Immunization of Lewis rats with Mt in oil triggers AA, an experimental autoimmune disease driven by Mt-specific T cells cross-reactive with self-antigens. Mt176-90-specific T cells are detectable upon induction of AA; indeed the A2b T-cell clone cross-reacts with cartilage and mediates AA. Since L and D-CP inhibited the T-cell response of primed LNC and of clone A2b to PPD and […] in vitro (FIG. 9), we also investigated the effects of L- or D-CP on the in vivo activation of the T cells that drive AA. […] The mean maximum score was 12±0.3 in the control-treated rats, compared with 6±0.7 in the D-CP-treated rats and 7.3±0.7 in the L-CP-treated rats (p<0.05 for the L and D-CP groups compared to the control groups).
# [4] = system: Lewis rats; test: Delayed type hypersensitivity (DTH) to PPD in AA rats (Part B); format: in vivo, rat; conditions: 16 days after AA induction
# Procedure: Twenty μl of PPD (0.5 mg/ml in PBS) were injected intradermally into the pinna of the right ear on day 16 after AA induction; 20 μl of sterile PBS were injected in the left ear as control. The thickness of the ear was measured 48 hr later using a vernier caliper and expressed as the difference between the right and the left ear.
# The activity of the T cells that mediate AA can also be detected in vivo by studying the delayed type hypersensitivity (DTH) response to PPD. We studied the DTH response to PPD 16 days after AA induction in rats treated with the three peptides.
# [5] = system: BALB/c mice; test: Delayed type hypersensitivity to oxazalone in mice; format: in vivo, mouse; conditions: topical treatment 1 hr after oxazalone challenge; peptides 150 μg (6 mg/kg) in DMSO; measured following day
# Procedure: Groups of 5 female inbred BALB/c mice (The Jackson Laboratory) were sensitized on the shaved abdominal skin with 100 μl of 2% Oxazalone dissolved in acetone/olive oil [4:1 (vol/vol)] applied topically. DTH sensitivity was elicited 5 days later by challenging the mice with 20 μl of 0.5% Oxazalone in acetone/olive oil, 10 μl administered topically to each side of the ear. A constant area of the ear was measured immediately before challenge and 24 h after challenge with a Mitutoyo engineer's micrometer. The individual measuring ear swelling was unaware of the identity of the groups of mice. The DTH reaction is presented as the increment of ear swelling after challenge expressed as the mean±SEM in units of 10-2 mm. One hour after the challenge the mice's ears were treated topically with either all-L CP or with 2D-CP, both dissolved in 40 μl DMSO. The activity of the peptide treatments was compared to treatment with DMSO alone for “untreated mice” and Dexamethasone (100 μg/ml in saline) as a positive control.
# To test whether TCR trans-membrane peptides could inhibit the elicitation of existing DTH reactivity, groups of naïve BALB/c mice were sensitized to 2% oxazalone. Five days later, the mice were challenged with 0.5% oxazalone administered to the ear. An hour after the challenge, the mice were treated with Dimethylsulfoxide (DMSO), all-L CP 150 μg (6 mg/kg) in DMSO, 2D-CP 150 μg (6 mg/kg) in DMSO, or dexamethasone, applied topically. On the following day, ear thickness was measured the swelling of DMSO treated mice (0.33±0.01 mm) was compared to that of mice treated with all-L CP (0.30±0.01 mm), 2D-CP (0.27±0.01 mm) and Dexamethasone (0.15±0.02 mm). […] Thus, 2D-CP can inhibit a T-cell mediated immune reaction in subjects already sensitized to the antigen.
# [6] = system: rat TCR; test: Co-immunoprecipitation of fluorescence-labeled peptides with TCR molecules; format: binding; conditions: Rho-labeled peptides
# Procedure: Activated A2b T cells (2×10^6) were cultured for 1 hr at 37° C. in the presence of CP or 2D-CP (25 μg/ml), or 2G-CP, and lysed for 15 min on ice in 0.1 ml lysis buffer (Adachi et al., 1996). Insoluble material was removed by centrifugation at 10.000 g for 10 min at 4° C. The lysate was then incubated overnight with Protein A-plus Agarose beads (Santa Cruz Biotechnology Inc., Santa Cruz, Calif., USA) bound to antibodies to the rat TCR or MHC class 1. The antibodies reactive against the rat TCR (clone R73) or HSP60 (clone LKI) were purified from the respective hybridomas at our lab; antibodies to rat CD28, actin and the rat MHC class 1 were purchased from Serotec (Oxford, UK). After an overnight incubation at 4° C., the beads were washed with lysis buffer, boiled for 10 minutes and the protein supernatant run in a 4-20% SDS-PAGE. The presence of co-immunoprecipitated peptide was detected by the Typhoon 9400 variable mode imager.
# Next, co-immunoprecipitation experiments were performed. The affinity of the TCR/CP, the TCR/2D-CP and TCR/2G-CP interactions were compared by performing a series of co-precipitation experiments using different concentrations of Rho-labeled CP, 2D-CP and 2G-CP peptides.
# [7] = system: LNC from Mt primed rats; test: T-cell proliferation of LNC from Mt-immunized rats activated with PPD or Mt176-90 (Part A); format: cell-based, rat; conditions: LNC, 72 hr, 3H-thymidine incorporation
# [8] = system: Lewis rats; test: Adjuvant arthritis (AA) in Lewis rats (Part A); format: in vivo, rat
# Procedure: as §1, with “the experimental T-cell mediated autoimmune disease adjuvant arthritis (AA) was used.” for “we used AA as a model system.”, “(10” for “(0.5”, “all-L CP, 2D-CP” for “L-CP, D-CP”, “16 (Quintana et al., 2002).” for “16.”
# Next, the contribution of the secondary structure and the side-chains to the inhibitory effects of CP on T cell activation In vivo was analyzed, using the experimental autoimmune disease Adjuvant Arthritis (AA). Immunization of Lewis rats with Mt triggers AA, an autoimmune disease driven by Mt-specific T cells that cross-react with self-antigen (Holoshitz et al., 1984; Holoshitz et al., 1983). PPD and Mt176-90 are targeted by the arthritogenic T-cell response (Anderton et al., 1994); indeed immunomodulatory therapies that inhibit the progression of arthritis have been associated with a decreased T cell response to PPD and Mt176-90 and with a diminished delayed type hypersensitivity (DTH) response to PPD (van Eden et al., 1985).
# [9] = system: Lewis rats; test: Delayed type hypersensitivity to PPD in AA rats (Part A); format: in vivo, rat; conditions: 16 days after AA induction, ear thickness 48 hr after PPD
# Procedure: Twenty μl of PPD (0.5 mg/ml in PBS) were injected intradermally into the pinna of the right ear of each rat on day 16 after AA induction; 20 μl of sterile PBS were injected in the left ear as control. The thickness of the ear was measured 48 hr later using a vernier caliper and expressed as the difference between the right and the left ear (Quintana et al., 2005).
# [10] = system: target cells; test: Cytotoxic effect on the target cells (Part A); conditions: incubated with the target cells
Compound,Inhibition of T-cell proliferative responses to PPD and to Mt176-90 [1],Inhibition of T-cell proliferation compared with L-CP ([1]; at the lower concentrations),Cytotoxicity [2],Mean maximum AA score [3],Effect on adjuvant arthritis (clinical score and ankle swelling) [3],Reduction in the DTH response to PPD [4],Ear swelling [5],Co-precipitation with the TCR ([6]; activated A2b T cells),Affinity of TCR interaction compared with TCR/2D-CP ([6]; different concentrations),Inhibition of T-cell proliferation to PPD and to Mt176-90 [7],"Mean maximum AA score ([8]; 100 μg peptide per rat at AA induction, maximum possible score 16)",Effect on adjuvant arthritis (clinical score and paw swelling) ([8]; 100 μg peptide per rat with Mt at the time of AA induction),Reduction in the DTH response to PPD [9],Cytotoxic effect [10]
"CC[C@@H](C)[C@@H](NC(=O)[C@@H](CCCNC(=N)N)NC(=O)[C@@H](CC(C)C)NC(=O)CN)C(=O)N[C@H](CC(C)C)C(=O)N[C@H](CC(C)C)C(=O)N[C@H](CC(C)C)C(=O)N[C@H](CCCCN)C(=O)N[C@@H](C(N)=O)C(C)C [D-CP, X-GLRILLLKV-NH2] (H-G[dL][dR][dI][dL][dL][dL][dK][dV]-NH2)",inhibited the T-cell proliferative responses to PPD and to Mt176-90 in a dose-dependent manner,consistently higher,showed no cytotoxicity,6±0.7,significantly milder arthritis,48%,,,,,,,,
"C[C@@H]1C[C@H]2[C@@H]3CCC4=CC(=O)C=C[C@]4(C)[C@@]3(F)[C@@H](O)C[C@]2(C)[C@@]1(O)C(=O)CO [Dexamethasone, reference compound]",,,,,,,0.15±0.02 mm,,,,,,,
GLRILLLKV [all-L CP] (GLRILLLKV-NH2; listed as Homo sapiens) [reference compound],,,,,,,0.30±0.01 mm,can be co-precipitated with the TCR,higher affinity,inhibited T-cell proliferation to PPD and to Mt176-90 in a dose-dependent manner,7.7±0.7,significantly milder arthritis,39%,"None of the peptides (all-L CP, 2D-CP or 2G CP) had a cytotoxic effect"
"GLRILLLKV-NH2 [L-CP, X-GLRILLLKV-NH2, reference compound]",inhibited the T-cell proliferative responses to PPD and to Mt176-90 in a dose-dependent manner,,showed no cytotoxicity,7.3±0.7,significantly milder arthritis,39%,,,,,,,,
